Measured values published in patent EP2736507B1, “BASIC ALPHA LIPOIC ACID SOLUTION AND ITS USES” (ITAPHARMA S.R.L., priority 2011, dated 2013).

What was measured:
[1] = humans, oral route, 600 mg, various formulations; cited from earlier work
[2] = test system: SK-N-SH cell cultures; assay: ROS induced from H2O2 in cell cultures; format: cell-based, human; details: for Ros (% compared to ctrl) 24h: 24h pre-treatment, then 2 hours 1.5mM mM H2O2; for Ros (% compared to ctrl) 48h: 48h pre-treatment, then H2O2
Experimental: Another important function ascribable to lipoic acid is that of contrasting the formation of reactive species of oxygen induced from H2O2. […] A further aim was to verify whether R-alpha lipoic acid retained this function also in an aqueous solution. For this reason, increasing doses of the same, coming from the above-used solution of the invention and subjected to digestion in artificial gastric juice, were added to the culture medium for different intervals of time (24 hr and 48 hr) before inducing an oxidative stress with H2O2. The same reaction was performed as a control, by using the R-alphaLA prepared in DMSO, but dissolved directly in medium to obtain the same working concentrations.
In Table 10, the values of ROS are reported as % with respect to those observed in the controls after 24 hours of maintenance in the culture and 2 hours of treatment with 1.5mM mM H2O2. In the first box of the Table, the results are shown as obtained after administration of R-alphaLA prepared in DMSO and then diluted directly in the medium to obtain the reference final concentrations; in the second box, on the other hand, R-alphaLA was first dissolved in the solution of the invention, subsequently digested in gastric juice and finally diluted in the medium. As summarised in Table 10, in each case, a dose-dependent response of alpha lipoic acid in preventing the formation of the ROS was observed over the first 24 hours.

[3] = test system: HepG2 cells; assay: Cell vitality (ATP lite kit); format: cell-based, human; details: for Vitality %): [conc.]final 1.0 mM, HepG2, 72-hour (3x24 hr) treatment, control = 100
Experimental: In order to analyse the effects of the solution of the invention, alpha lipoic acid contained therein was digested in artificial gastric juice and subsequently administered in the culture medium at the final concentration of 0.5 or 1mM. The cell vitality effects recorded were compared with those achieved in a parallel control experiment wherein alpha lipoic acid dissolved in a solvent of election for cell studies, i.e. DMSO (but not digested in gastric juice) was used. […]

[4] = test system: HepG2 cells; assay: Glucose in the medium, insulin-resistant diabetes cellular model (Glucose assay kit); format: cell-based, human; details: 1 mM for 48 hr; HepG2 in medium enriched with glucose 30mM; reference control = 100%
Experimental: Lastly, the hypoglycaemia-inducing action of the lipoic acid formulated in aqueous solution of the invention was also evaluated, by utilising an insulin-resistant diabetes cellular model. HepG2 cells cultivated in a medium enriched with glucose and free of insulin mimicked certain conditions present in the hepatocytes of diabetic patients; in addition, certain functions of the culture medium, considered as a container of nutritional substances and an accumulation container for those substances excreted, could be compared to plasma circulation. […]
Table 11 reports some of the most significant results achieved by using the Sigma Aldrich Glucose assay kit to determine the glucose; more specifically, the values obtained from the culture medium following administration for 48 hr of lipoic acid (1mM) prepared in DMSO or formulated in aqueous solution at 30 % of propylene glycol, in accordance with the present invention. The most significant decrease in glucose was in fact observed with the R-enantiomer of alpha lipoic acid in the solution of the invention.

Row | Compound | bioavailability [1] | Ros (% compared to ctrl) 24h ([2]; 100µM) | Ros (% compared to ctrl) 48h ([2]; 100µM) | Ros (% compared to ctrl) 24h ([2]; 200µM) | Ros (% compared to ctrl) 48h ([2]; 200µM) | cell vitality values compared to the control ([3]; 1mM, 48-hr treatment, dissolved in DMSO, HepG2, previous tests) | Vitality %) [3] | Glucose in the medium (%) [4]
1 | O=C(O)CCCCC1CCSS1 (stereo not drawn) [lipoic acid, 1,2-dithiolane-3-pentanoic acid] | less than 30% | – | – | – | – | – | – | –
2 | O=C(O)CCCC[C@@H]1CCSS1 [(R) alphaLA (in DMSO), alpha-R-lipoic acid] | – | 77.87% | 99.26% | 49.18% | 103.98% | halved | 40.33% | 89%
3 | O=C(O)CCCCC1CCSS1 (racemic) [(RS) alphaLA (in DMSO), alpha lipoic acid] | – | – | – | – | – | – | 35.48% | –
